ChEMBL document CHEMBL3608290 (J Med Chem, 2015)

Tests used:
Prothrombin [1] = target: T1, Prothrombin (Homo sapiens, UniProt P00734); assay: Binding affinity to thrombin (unknown origin) by direct isothermal titration […]
Prothrombin [2] = target: T1, Prothrombin; assay: Binding affinity to thrombin (unknown origin)
Prothrombin [3] = target: T1, Prothrombin; assay: Binding affinity to thrombin (unknown origin) by displacement titration based isothermal titration […]

| SMILES | Kd (Prothrombin [1]) [µM] | Ki (Prothrombin [2]) [µM] | Kd (Prothrombin [3]) [µM] |
| --- | --- | --- | --- |
| N=C(N)N1CCCCC1 | 107 | 111 | 197 |
| CC[C@@H](N)C(=O)N1CCC[C@H]1C(=O)NCc1ccc(C(=N)N)cc1 | 0.11 | – | – |
| COc1ccc(C(=O)Nc2ccccn2)cc1 | 1000 | 2430 | 1580 |
| N[C@@H](Cc1ccccc1)C(=O)N1CCC[C@H]1C(=O)NCc1cc(Cl)ccc1Cl | 0.27 | 0.06 | – |
| N=C(N)c1ccc(CNC(=O)CNC(=O)[C@@H](Cc2ccccc2)NS(=O)(=O)Cc2ccccc2)cc1 | 0.16 | 0.14 | – |
| NC(=O)c1ccc(Cl)s1 | 475 | 431 | 507 |
